# According to paper PMC8910432 (International Journal of Molecular Sciences, 2022):
# What was measured:
# [1] = target: RBD (N501Y) spike protein and human ACE2 (Severe acute respiratory syndrome coronavirus 2, UniProt P0DTC2, N501Y); format: binding, SARS-CoV-2; human; conditions: for inhibitory effect on interaction between RBD (N501Y) spike protein and human ACE2: 10 µM
# RBD (N501Y) = RBD (N501Y) (Severe acute respiratory syndrome coronavirus 2, UniProt P0DTC2, N501Y); format: binding, SARS-CoV-2
Molecule,concentration from which inhibition is significant [1],reduction of the binding between RBD (N501Y) spike protein and ACE2 [1],inhibitory effect on interaction between RBD (N501Y) spike protein and human ACE2 [1],TA adsorption onto RBD (QCMD) (RBD (N501Y))
"O=C(OC[C@H]1OC(OC(=O)c2cc(O)c(O)c(OC(=O)c3cc(O)c(O)c(O)c3)c2)[C@H](OC(=O)c2cc(O)c(O)c(OC(=O)c3cc(O)c(O)c(O)c3)c2)[C@@H](OC(=O)c2cc(O)c(O)c(OC(=O)c3cc(O)c(O)c(O)c3)c2)[C@@H]1OC(=O)c1cc(O)c(O)c(OC(=O)c2cc(O)c(O)c(O)c2)c1)c1cc(O)c(O)c(OC(=O)c2cc(O)c(O)c(O)c2)c1 (stereo partly drawn) [TA, 1,2,3,4,6-penta-O-{3,4-dihydroxy-5-((3,4,5-trihydroxybenzoyl)oxy)benzoyl}-D-glucopyranose]",≥ 0.1 µM,up to 95%,up to 50%,amount of TA adsorbed increases with TA concentration
"O=C(OC[C@H]1O[C@@H](OC(=O)c2cc(O)c(O)c(O)c2)[C@H](O)[C@@H](OC(=O)c2cc(O)c(O)c(O)c2)[C@@H]1O)c1cc(O)c(O)c(O)c1 [TGG, 1,3,6-tri-O-galloyl-β-D-glucose]",≥ 0.1 µM,–,up to 50%,–
"O=C(O[C@@H]1O[C@@H]2COC(=O)c3cc(O)c(O)c(O)c3-c3c(cc(O)c(O)c3O)C(=O)O[C@H]([C@H]1O)[C@@H]2O)c1cc(O)c(O)c(O)c1 [corilagin, β-1-O-galloyl-3,6-(R)-hexahydroxydiphenoyl-D-glucose]",≥ 0.1 µM,–,up to 50%,–
COc1cc(-c2[o+]c3cc(O)cc(O)c3cc2O[C@@H]2O[C@H](CO)[C@@H](O)[C@H](O)[C@H]2O)cc(OC)c1O [malvidin-3-O-glucoside],–,–,"only TA, TGG, and corilagin show a significant inhibitory effect",–
OC[C@H]1O[C@@H](Oc2cc3c(O)cc(O)cc3[o+]c2-c2ccc(O)cc2)[C@H](O)[C@@H](O)[C@@H]1O [pelargonidin-3-O-glucoside],–,–,"only TA, TGG, and corilagin show a significant inhibitory effect",–
cyanidin-3-O-glucoside,–,–,"only TA, TGG, and corilagin show a significant inhibitory effect",–
